Laboratory results from patent US20090220448A1, “HAIR CARE COMPOSITIONS AND METHODS FOR INCREASING HAIR DIAMETER AND FOR IMMEDIATE FULLER/THICKER HAIR APPEARANCE” (priority 2008, published 2009).

Tested on: Primary human dermal papilla cells
Experiment: Synergy study: survival of metabolically stressed dermal papilla cells (ATP, Cell Titer Glo)
Format: cell-based
Details: 0.05%, 48 hours metabolic stress in reduced media, control 100% water
Description: The dermal papilla, in normal human hair, is the control center for hair diameter. Increasing survival of dermal papilla cells in situ leads to increased hair diameter. Accordingly, an increase in survival of dermal papilla cells correlates with an increase in hair diameter.
Primary human dermal papilla cells were metabolically stressed for 48 hours in reduced standard tissue culture media. During this period of stress the cells were treated with the mixtures or individual ingredients below. After 48 hr the metabolic activity of the cells was measured by the amount of ATP using the Cell Titer Glo™ kit (Promega).

Cn1c(=O)c2c(ncn2C)n(C)c1=O [Caffeine]
Survival rate: % Change from Control: +41%
